According to US20160075689A1, “POLYMERASE, ENDONUCLEASE, AND HELICASE INHIBITORS AND METHODS OF USING THEREOF” (THE BOARD OF TRUSTEES OF THE UNIVERSITY OF ARKANSAS, priority 2013, published 2016):

Target: NS3-4A (Hepatitis C virus genotype 1b, UniProt P26663)
Experiment: NS3 protease activity assay
Assay type: biochemical, HCV
Conditions: 25 μM compound, 50 nM NS3-4A, 100 nM substrate
Procedure: The protease activity of NS3 was analyzed in the presence of 25 μM ITBA-3-79, ITBA-3-82 or ITBA-3-85 by using 50 nM NS3-4A and 100 nM substrate (Ac-Asp-Glu-Asp-EDANS-Glu-Glu-Abu-L-Lactoyl-Ser-Lys DABCYL-NH2). The emission spectra of EDANS and the absorption spectra of DABCYL overlap making the peptide internally quenched. Cleaving of the substrate by the protease results in an increase in fluorescence that can be measured (λex−355 nm; λem, −500 nm). Telapravir (10 μM) was used as a positive control.

NS3-4A, sequence (P26663 1027-1657): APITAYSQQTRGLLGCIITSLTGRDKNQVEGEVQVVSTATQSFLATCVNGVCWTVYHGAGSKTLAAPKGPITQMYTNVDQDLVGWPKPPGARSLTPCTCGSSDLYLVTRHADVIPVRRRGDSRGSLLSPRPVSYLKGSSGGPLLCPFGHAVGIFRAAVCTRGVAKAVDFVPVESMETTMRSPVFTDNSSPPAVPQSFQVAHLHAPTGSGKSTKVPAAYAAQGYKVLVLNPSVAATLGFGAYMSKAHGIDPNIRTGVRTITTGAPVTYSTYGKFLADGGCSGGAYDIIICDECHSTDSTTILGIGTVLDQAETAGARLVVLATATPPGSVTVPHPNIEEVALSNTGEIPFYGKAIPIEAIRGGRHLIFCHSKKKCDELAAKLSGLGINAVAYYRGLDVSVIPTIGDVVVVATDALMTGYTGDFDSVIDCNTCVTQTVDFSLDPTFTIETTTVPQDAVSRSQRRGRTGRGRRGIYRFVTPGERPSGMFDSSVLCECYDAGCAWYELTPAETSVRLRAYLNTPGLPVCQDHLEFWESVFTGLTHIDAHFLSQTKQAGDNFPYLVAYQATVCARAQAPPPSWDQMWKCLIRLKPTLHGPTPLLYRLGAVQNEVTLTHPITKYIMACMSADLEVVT
NS3-4A, sequence (P26663 1658-1711): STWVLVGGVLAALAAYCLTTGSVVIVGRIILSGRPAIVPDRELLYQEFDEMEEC

`COc1ccc2c(c1)c(C=C1C(=O)NC(=S)NC1=O)cn2C(=O)c1ccc2ccccc2c1` [PNR-3-82] was tested, and the NS3 protease activity was “do not block protease activity”.
